Measured values published in patent US20200290950A1, “ALKAMIDE COMPOUNDS AND USES THEREOF” (NORTH CAROLINA STATE UNIVERSITY, priority 2017, published 2020).

Assays:
RBL-2H3 cells [1] = assay: TNF-α ELISA, 18 hrs (Example 3); format: cell-based, rat; details: 1 μM A23187, 18 hours
Procedure: FIGS. 25A-25B. […] RBL-2H3 cells were plated overnight and stimulated with 1 μM A23187 in the absence or presence of each alkamide for 18 h. Culture supernatants were analyzed for TNF-α levels by ELISA and experiments were performed in triplicate (FIG. 25A). Percent inhibition of TNF-α secretion for each alkamide listed in FIG. 25B. *P<0.05, **P<0.01, ***P<0.001, one-way ANOVA with Dunnett's post hoc test compared to vehicle (FIG. 25A) or A15 (FIG. 25B).
RBL-2H3 cells (1.0×10^5 cells) were incubated overnight in a 24 well plate at 37° C. with 5% CO2. Cells were washed with 1×PBS and stimulated with 1 μM A23187 for 18 hrs in the absence or presence of each compound. The cells were centrifuged (1200×g, 5 min) and the supernatants were collected. The concentration of TNF-α in the supernatants were determined using the TNF-α ELISA kit.

RBL-2H3 cells [2] = assay: β-hexosaminidase degranulation assay, RBL-2H3 cells (Example 1); format: cell-based, rat
Procedure: FIGS. 1A-1F. A15 inhibits BMMC and RBL-2H3 cell degranulation. The structure of alkamide A15 is shown with different functional groups and carbons in the fatty acid chain labeled (FIG. 1A). BMMCs were plated and stimulated 4 hrs later with 1 μM A23187 and the indicated concentrations of A15 or vehicle only. The percent degranulation was measured after 1 hr (FIG. 1B). RBL-2H3 cells were treated with A23187 and the percent degranulation was determined 1 hr later (FIG. 1C) or every 10 min over a 1 hr time course (FIG. 1D). RBL-2H3 cells were plated and incubated for 4 hrs before the media was aspirated and replaced with media containing 1 μg/mL IgE anti-DNP. Cells were incubated overnight and washed prior to stimulation. […] RBL-2H3 cells were stimulated for 1 hr in Tyrode's buffer before supernatants were collected and levels of histamine were measured using a competitive inhibition EIA kit (FIG. 1F). […]
FIGS. 5A-5D. […] Percent degranulation was measured 1 hr after stimulation with 1 μM A23187 in combination with vehicle only or 25 μg/mL of the indicated E. purpurea samples. […] RBL-2H3 cells were loaded with fluo-4 AM using the Fluo-4 AM Direct™ Calcium Assay Kit and fluorescence was measured on a microplate reader. […]
RBL-2H3 cell and BMMC degranulation was measured using a β-hexosaminidase (β-hex) activity assay. […] Absorbance was read at 405 nm on a BioTek Synergy HT microplate reader. […]

[3] = system: RAW 264.7 macrophage-like cells; assay: Fluo-4 calcium assay, RAW 264.7 cells; format: cell-based, mouse; details: 1 μM A23187, 100 μM A15, at 1 min
Procedure: FIGS. 4A-4D. A15 inhibits A23187-stimulated calcium influx in RAW 264.7 and Jurkat cells. RAW 264.7 (FIG. 4A-4B) or Jurkat cells (FIG. 4C-4D) were loaded with fluo-4 AM using the Fluo-4 AM Direct™ Calcium Assay Kit and fluorescence was measured on a microplate reader. Cells were stimulated with 1 μM A23187 in combination with vehicle only or 100 μM A15. Bar graphs represent the means±SEM of the Δ in RFU's at 1 min post-A23187 stimulation from 3 independent experiments. Statistical analysis was performed using an unpaired Student's t-test, *p<0.05.
RBL-2H3, BMMC, RAW 264.7, or Jurkat cells were plated in clear-bottom, black, 96-well plates (BioExpress, Kaysville, Utah) and incubated overnight with media only or media containing IgE anti-DNP. […] Prior to stimulation, baseline fluorescent readings were measured from triplicate wells in 5 s intervals for 1 min using a Synergy HT microplate reader with 485/20 nm excitation and 528/20 nm emission filters. Cells were then treated with either 1 μM A23187 or 50 ng/mL DNP-BSA prepared in calcium- and magnesium-containing or calcium- and magnesium-free HBSS with 20 mM HEPES, and fluorescence was measured in 10 s intervals for 2 min. […] The average baseline fluorescence of each well was subtracted from the stimulated fluorescent values to calculate the change (Δ) in RFU's and graphed as shown.

Question: Which “percent inhibition of TNF-α secretion” value (RBL-2H3 cells [1]) does the source give for `CCCCCCC/C=C/C=C/C(=O)NCC(C)C` [A15, (2E,4E)-N-Isobutyldodeca-2,4-dienamide] here?
Answer: The value was 79%.

Question: What about the degranulation (RBL-2H3 cells [2]; RBL-2H3 cells activated by IgE anti-DNP and DNP-BSA) of the same compound?
Answer: Its degranulation is “inhibited degranulation”.

Question: What about the inhibition at 100 µM (RBL-2H3 cells [2]; Rattus norvegicus, A23187-stimulated RBL-2H3 cells, 100 μM, 1 hr, read-out: inhibition of release of β-hex) of the same compound?
Answer: Its inhibition at 100 µM is 48.4%.

Question: What about the “suppression of calcium influx” value [3] of the same compound?
Answer: The value was 60.2%.
